The supplement of paper PMC10307832

Legend:
Assay in all cases: relative viability (nuclei count vs DMSO), 5 days (fraction); higher = more cells survive
Vemurafenib + Trametinib = compound: CCCS(=O)(=O)Nc1ccc(F)c(C(=O)c2c[nH]c3ncc(-c4ccc(Cl)cc4)cc23)c1F [Vemurafenib] + CC(=O)Nc1cccc(-n2c(=O)n(C3CC3)c(=O)c3c(Nc4ccc(I)cc4F)n(C)c(=O)c(C)c32)c1 [Trametinib] (partner 0.02 µM)
Summary of the method: (§1)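 Lung cancer cell lines in 1536-well plates got either a single drug or a fixed anchor-drug dose together with five library-drug doses (not always all listed) in √10 steps, by pin tool, on the day after seeding. Nuclei were counted after 5 days, and relative viability is the treated-to-vehicle ratio of nuclei counts. Values are medians of duplicate plates.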

OSI-027 + Lapatinib = compound: COc1cccc2cc(-c3nc([C@H]4CC[C@H](C(=O)O)CC4)n4ncnc(N)c34)[nH]c12 [OSI-027] + CS(=O)(=O)CCNCc1ccc(-c2ccc3ncnc(Nc4ccc(OCc5cccc(F)c5)c(Cl)c4)c3c2)o1 [Lapatinib] (partner 2 µM)
Summary of the method: as §1

Alpelisib + Navitoclax = compound: Cc1nc(NC(=O)N2CCC[C@H]2C(N)=O)sc1-c1ccnc(C(C)(C)C(F)(F)F)c1 [Alpelisib] + CC1(C)CCC(c2ccc(Cl)cc2)=C(CN2CCN(c3ccc(C(=O)NS(=O)(=O)c4ccc(N[C@H](CCN5CCOCC5)CSc5ccccc5)c(S(=O)(=O)C(F)(F)F)c4)cc3)CC2)C1 [Navitoclax] (partner 0.5 µM)
Summary of the method: as §1

Alpelisib + Phenformin = compound: Cc1nc(NC(=O)N2CCC[C@H]2C(N)=O)sc1-c1ccnc(C(C)(C)C(F)(F)F)c1 [Alpelisib] + N=C(N)NC(=N)NCCc1ccccc1 [Phenformin] (partner 250 µM)
Summary of the method: as §1

Row | Cell Line | relative viability (Vemurafenib + Trametinib; first compound 0.03162 µM) | relative viability (Vemurafenib + Trametinib; first compound 0.1 µM) | relative viability (Vemurafenib + Trametinib; first compound 0.3162 µM) | relative viability (Vemurafenib + Trametinib; first compound 1 µM) | relative viability (OSI-027 + Lapatinib; first compound 0.01 µM) | relative viability (OSI-027 + Lapatinib; first compound 0.03162 µM) | relative viability (OSI-027 + Lapatinib; first compound 0.1 µM) | relative viability (OSI-027 + Lapatinib; first compound 0.3162 µM) | relative viability (OSI-027 + Lapatinib; first compound 1 µM) | relative viability (Alpelisib + Navitoclax; first compound 0.04 µM) | relative viability (Alpelisib + Navitoclax; first compound 0.1265 µM) | relative viability (Alpelisib + Navitoclax; first compound 0.4 µM) | relative viability (Alpelisib + Navitoclax; first compound 1.265 µM) | relative viability (Alpelisib + Navitoclax; first compound 4 µM) | relative viability (Alpelisib + Phenformin; first compound 0.04 µM) | relative viability (Alpelisib + Phenformin; first compound 0.1265 µM) | relative viability (Alpelisib + Phenformin; first compound 0.4 µM) | relative viability (Alpelisib + Phenformin; first compound 1.265 µM) | relative viability (Alpelisib + Phenformin; first compound 4 µM)
1 | 201T | 0.702 | 0.681 | 0.752 | 0.779 | 1.05 | 1.08 | 0.986 | 0.975 | 0.957 | 1.16 | 1.16 | 1.2 | 1.15 | 1.14 | 0.437 | 0.485 | 0.428 | 0.348 | 0.349
2 | A549 |  |  |  |  | 1.1 | 0.878 | 0.764 | 0.497 | 0.314 | 1.23 | 1.18 | 1.06 | 0.851 | 0.715 | 0.147 | 0.21 | 0.172 | 0.16 | 0.115
3 | A-427 | 0.711 | 0.702 |  | 0.763 | 1.04 | 1.16 | 0.927 | 0.768 | 0.661 | 0.837 | 0.884 | 0.997 | 0.874 | 0.884 | 0.354 | 0.212 | 0.329 | 0.26 | 0.243
4 | ABC-1 |  |  |  |  | 1.33 | 0.991 | 1.04 | 0.97 | 0.553 |  |  |  |  |  | 0.256 | 0.252 | 0.211 | 0.233 | 0.222
5 | BEN | 0.935 | 1.01 | 0.638 | 0.811 | 0.626 | 0.529 | 0.419 | 0.355 | 0.281 | 0.0833 | 0.0642 | 0.161 | 0.0705 | 0.0615 | 0.262 | 0.239 | 0.267 | 0.296 | 0.281
6 | CAL-12T | 0.28 | 0.289 | 0.438 | 0.442 | 0.648 | 0.589 | 0.499 | 0.375 | 0.418 | 1.35 | 1.29 | 1.22 | 1.16 | 1.47 | 0.545 | 0.593 | 0.699 | 0.543 | 0.494
7 | COR-L23 | 0.619 | 0.58 | 0.433 | 0.691 | 0.887 | 1.2 | 0.744 | 1 | 0.34 | 0.923 | 1.02 | 1.07 | 0.789 | 0.753 | 0.388 | 0.414 | 0.49 | 0.402 | 0.36
8 | COR-L 105 | 0.418 |  | 0.428 | 0.655 | 0.34 | 0.356 | 0.336 | 0.297 | 0.295 | 0.607 | 0.633 | 0.728 | 0.615 | 0.554 | 0.446 | 0.593 | 0.669 | 0.416 | 0.415
9 | Calu-6 |  |  |  |  | 1.06 | 1.06 | 0.953 | 0.829 | 0.621 | 0.834 | 0.905 | 0.882 | 0.633 | 0.621 |  |  |  |  | 
10 | ChaGo-K-1 | 0.834 | 0.875 | 0.868 | 0.898 |  |  |  |  |  | 1.01 |  | 1.14 | 0.731 | 0.583 | 0.495 | 0.495 | 0.453 | 0.435 | 0.346
11 | EBC-1 |  |  |  |  | 0.187 | 0.217 | 0.223 | 0.199 | 0.203 | 0.417 | 0.312 | 0.339 | 0.233 | 0.281 |  |  |  |  | 
12 | EKVX | 0.316 |  | 0.406 | 0.476 | 0.169 | 0.189 | 0.201 | 0.16 | 0.153 | 0.969 | 0.903 | 1.12 | 0.84 | 0.75 | 0.234 | 0.229 | 0.253 | 0.225 | 0.192
13 | EMC-BAC-2 | 0.806 | 0.907 |  | 1.08 | 0.843 | 0.874 | 0.838 | 0.7 | 0.516 | 1.11 | 1.08 | 1.17 | 0.956 | 0.879 | 0.539 | 0.482 | 0.498 | 0.44 | 0.34
14 | EPLC-272H | 0.282 | 0.323 | 0.338 | 0.331 | 1.12 | 0.965 | 0.699 | 0.664 | 0.55 | 1.16 | 1.05 | 1.19 | 0.722 | 0.79 | 0.303 | 0.267 | 0.351 | 0.279 | 0.244
15 | H3255 | 0.589 |  | 0.652 | 0.645 | 0.22 | 0.269 | 0.234 | 0.183 | 0.234 | 0.463 | 0.47 | 0.524 | 0.384 | 0.407 | 0.352 | 0.375 | 0.336 | 0.25 | 0.335
16 | HARA | 0.742 | 0.325 | 0.71 | 0.757 | 0.741 | 0.577 | 0.549 | 0.418 | 0.405 | 1.13 | 1.17 | 1.16 | 1.2 | 0.575 | 0.48 | 0.451 | 0.555 | 0.331 | 0.301
